Experimental data from patent US20240390318A1, “PHARMACEUTICAL COMPOSITION COMPRISING CDK INHIBITOR AND ID2 ACTIVATOR FOR PREVENTION OR TREATMENT OF BLADDER CANCER” (THE ASAN FOUNDATION, priority 2021, published 2024).

Key:
[1] = test system: bladder cancer cell lines; assay: Cell proliferation by MTT assay; type: cell-based, human; conditions: for growth of BC cells: bladder cancer cell lines, apigenin with increasing dosage; for cell growth, proliferation: low concentrations, single or co-treatment
Procedure: (§1) Human BC cell lines T24, 5637, HT1197, HT1376, and RT4 were cultured in Eagle's Minimum Essential (for HT1197 and HT1376), McCoy's 5a Medium Modified (for T24 and RT4), and RPMI-1640 (for […]) medium (ATCC, Manassas, VA, USA) including 10% heat-inactivated FBS (Hyclone, Pittsburgh, PA, USA) and penicillin/streptomycin (Cellgro, Pittsburgh, PA, USA). 40 μM apigenin (Sigma-Aldrich, Burlington, MA, USA), 4-hydroxychalcone (Sigma-Aldrich), and diosmetin (Sigma-Aldrich) were treated for 24 hours to activate ID2 expression, and 20 μM RO-3306 (Sigma-Aldrich) and CGP74514A (Sigma-Aldrich) were treated for 24 hours to inhibit CDK1 activity.
(§2) The cell proliferation ability was determined by MTT assay (Sigma-Aldrich). Apoptosis was analyzed by annexin-V fluorescein isothiocyanate (FITC)/propidium iodide (PI) assay. Cells were subjected to trypsin, harvested, washed with PBS, resuspended in annexin-V binding buffer (10 mM HEPES, pH 7.4, 140 mM NaCl, 2.5 mM CaCl2)), and labeled with Annexin-V FITC and PI. FITC- and/or PI-labeled cell colonies were quantified by flow cytometry (Beckman Coulter, Brea, CA, USA).

ID2 [2] = assay: ID2 expression in bladder cancer cells (qPCR, Western blot); type: cell-based, human; conditions: HT1197 and HT1376 cells; ID2 activators 40 μM, CDK1 inhibitors 20 μM, 24 hours
Procedure: as §1
Real-time quantification PCR was used to perform quantitative analysis of gene expression. Total RNA was extracted using the QIAGEN RNeasy RNA isolation kit (QIAGEN, Valencia, CA, USA), and 50 ng of total RNA was reverse transcribed using Taqman Reverse Transcription Reagents (Applied Biosystems, Foster City, CA, USA). Threshold cycles (Ct) were used to determine the relative expression levels of target genes using the 2-DDCt method. The expression of GAPDH was used as an endogenous control gene.
(§3) Cell extracts (30 μg) were prepared in RIPA lysis buffer (Santa Cruz Biotechnology) supplemented with a protease and phosphatase inhibitor cocktail (Roche, Indianapolis, IN, USA) and isolated in a 12% SDS-PAGE gel. An expression level of the labeled protein was assessed by probing with the following antibodies: ID2 (NBP-88630; Novusbio, Centennial, CO, USA), TFCP2L1 (OAAB09732; Aviva Systems Biology, San Diego, CA, USA), CDK1 (sc-54; Santa Cruz), PARP (9542; Cell Signaling), Cleaved Caspase-3 (9661; Cell Signaling), b-ACTIN (A5441; Sigma-Aldrich), and Flag-epitope (F3165; Sigma-Aldrich).

[3] = test system: bladder cancer cell lines; assay: Tumor sphere formation; type: cell-based, human
Procedure: To form tumor spheres, BC cells were resuspended in a single-cell suspension mixed with serum-free keratinocyte growth medium (Gibco, Waltham, MA, USA) and growth factor-reduced Matrigel (BD Biosciences, Mountain View, CA, USA) in a 1:1 ratio, and cultured on ultra-low attachment plates (Costar, Corning, NY, USA). The size of the tumor sphere was measured for 7 days after the first culture. For quantitative analysis, Image J software (National Institute of Mental Health, Bethesda, MD, USA) was used to measure the circumference of tumor sphere in eight representative regions randomly selected from each group.

[4] = test system: bladder cancer cell lines; assay: Apoptosis by annexin-V FITC/PI flow cytometry; type: cell-based, human; conditions: for apoptosis of BC cells: bladder cancer cell lines, apigenin time-dependent treatment; for apoptosis of bladder cancer cells: low concentrations, single or co-treatment
Procedure: as §1, §2

[5] = test system: bladder cancer cell lines; assay: Western blot of caspase-3 and PARP cleavage; type: cell-based, human; conditions: for cleavage of caspase-3 and PARP: low concentrations, single or co-treatment
Procedure: as §1, §3

TFCP2L1 = TFCP2L1 protein expression in orthotopic xenograft bladder (immunofluorescence); type: in vivo, mice; conditions: HT1376 orthotopic xenograft; RO-3306 4 mg/kg alone or with apigenin 50 mg/kg i.p.
Procedure: (§4) All animal experiments conducted in this experiment were carried out with the approval of the Institutional Animal Care Committee (IACUC-2020-12-209) of the University of Ulsan College of Medicine. 8-week-old male NOD/[…]) mice were purchased from GEM Biosciences Inc. (Cheongju, South Korea). 100 μl of 1.0×10^6 HT1376 BC cells were injected into the anterior wall of the bladder and the outer layer of the dome using a […] and a 26-gauge needle in the mice adapted for 1 week at the Animal Laboratory of Asan Medical Center, Seoul. Three weeks after orthotopic transplantation of BC cells, mice were injected intraperitoneally with RO-3306 (4 mg/kg) and apigenin (50 mg/kg), either alone or in combination, for 6 times at 4-day intervals. Mice and injection sites were monitored every 2 days for 45 days after the initial administration of BC cells. Tumor size was measured at the endpoint, and the tumor site was recovered by incision to perform histological examination or immunofluorescence assay. Mice were randomly assigned to the treatment group (N=5 or 10) and randomized to the sequence of cell transplantation, treatment, evaluation, and daily checkup. […] The stained samples were photographed using an inverted fluorescence microscope (EVOS FL Color Imaging System, Life Technologies).

ID2 [6] = assay: ID2 protein expression in orthotopic xenograft bladder (immunofluorescence); type: in vivo, mice; conditions: HT1376 orthotopic xenograft; RO-3306 4 mg/kg alone or with apigenin 50 mg/kg i.p.
Procedure: as §4

HT1376 cells = assay: Orthotopic xenograft BC animal model, tumor size and histological examination; type: in vivo; conditions: NSG mice; for tumor growth suppression/inhibition: i.p. apigenin 50 mg/kg and/or RO-3306 4 mg/kg, 6 times at 4-day intervals
Procedure: as §4, with “checkup. Investigations related to tumor size measurement and histological assessment were conducted as blind tests for the treatment group. For histological analysis, the bladder of xenograft mice was fixed with 4% paraformaldehyde for 1 day. After 24 hours of cryoprotection in 30% sucrose, each bladder was cut into 20 μm sections using cryostat (Leica, Lussloch, Germany) and stained with hematoxylin and eosin (H&E). For immunofluorescence (IF) staining, the bladder was stained with antibodies specific to ID2 (NBP-88630; Novusbio), TFCP2L1 (OAAB09732; Aviva Systems Biology), CDK1 (ab131450; Abcam, Cambridge, MA, USA), CD44 (ab78960; Abcam), and Cytokeratin 14 (KRT14; Ab7800).” for “checkup.”

CDK1 = CDK1 protein expression in orthotopic xenograft bladder (immunofluorescence); type: in vivo, mice; conditions: HT1376 orthotopic xenograft; RO-3306 4 mg/kg alone or with apigenin 50 mg/kg i.p.
Procedure: as §4

[7] = test system: bladder cancer cell lines; assay: In vitro cell invasion (Transwell, Matrigel); type: cell-based, human
Procedure: The upper chamber of the Transwell permeable support (Corning Inc, Corning, NY, USA) with an 8.0 μm pore polycarbonate membrane filter was coated with Matrigel (BD Biosciences) diluted in a 1:5 ratio. BC cells were loaded into the upper chamber at 2×10^4 cell/well concentrations in 100 μL of serum-free DMEM, and culture medium containing 3% FBS was filled into the lower chamber. Cell invasiveness was evaluated by culturing cells at 37° C. for 24 hours in a 5% CO2 incubator and then counting the number of cells that migrated to the bottom of the membrane. Three fields of view (magnification, ×200) were randomly selected from each transwell chamber for quantitative analysis.

Compound: O=C(/C=C/c1ccc(O)cc1)c1ccccc1 [4-hydroxychalcone]
- growth of BC cells [1]: reduced the growth of bladder cancer cells
- expression of ID2 at RNA and protein levels (ID2 [2]): increase in ID2 expression
- tumor sphere forming ability [3]: tumor forming ability was reduced
- apoptosis of BC cells [4]: activated apoptosis

Compound: CCn1cnc2c(Nc3cccc(Cl)c3)nc(N[C@@H]3CCCC[C@@H]3N)nc21 [CGP74514A]
- expression of ID2 at RNA and protein levels (ID2 [2]): increase in ID2 expression

Compound: O=C1NC(=NCc2cccs2)S/C1=C\c1ccc2ncccc2c1 [RO-3306]
- cleavage of caspase-3 and PARP [5]: no significant effect
- expression of TFCP2L1 protein (TFCP2L1): high
- cell growth, proliferation [1]: no significant effect
- expression of ID2 at RNA and protein levels (ID2 [2]): increased
- expression level of ID2 protein (ID2 [6]): low
- tumor growth suppression/inhibition (HT1376 cells): 66.8±2.48%
- apoptosis of bladder cancer cells [4]: does not induce
- expression of CDK1 protein (CDK1): high

Compound: O=c1cc(-c2ccc(O)cc2)oc2cc(O)cc(O)c12 [apigenin]
- cleavage of caspase-3 and poly-(ADP-ribose) polymerase (PARP) ([5]; bladder cancer cell lines): resulted in cleavage of caspase-3 and poly-(ADP-ribose) polymerase (PARP)
- cleavage of caspase-3 and PARP [5]: no significant effect
- invasiveness of BC cells [7]: remarkably inhibit
- growth of BC cells [1]: decreased significantly
- cell growth, proliferation [1]: no significant effect
- expression of ID2 at RNA and protein levels (ID2 [2]): increased
- tumor sphere forming ability [3]: remarkably inhibit
- histological examination: therapeutic effect, size and progression of bladder cancer (HT1376 cells; i.p. 6 times at 4-day intervals): therapeutic effect of apigenin on bladder cancer regardless of tumor grade
- tumor growth suppression/inhibition (HT1376 cells): 74±6.13%
- apoptosis of BC cells [4]: activated
- apoptosis of bladder cancer cells [4]: does not induce

Compound: COc1ccc(-c2cc(=O)c3c(O)cc(O)cc3o2)cc1O [diosmetin]
- growth of BC cells [1]: reduced bladder cancer cell growth
- tumor sphere forming ability [3]: decreased tumor forming ability
- apoptosis of BC cells [4]: activated apoptosis
